{"source": "patent US20230391824A1", "about": "“RATIONALE, DESIGN, SYNTHESIS AND VALIDATION OF A SMALL MOLECULE ANTICANCER AGENT” (priority 2021, published 2023)", "key": {"YP-MEL NCM tumor": {"system": "YP-MEL NCM tumor", "assay": "YP-MEL NCM tumor xenograft in SCID mice", "assay_type": "in vivo", "settings": "female SCID mice, 4 mg/kg I.P, every 2 days", "description": "FIG. 13A&B: Female SCID YP-MEL NCM tumor bearing mice treated with 4 mg/kg Compound of formula (I) (P1 version) intraperitoneally (I.P). […] (B) Tumor areas were measured with a Vernier caliper (prior to each treatment cycle). Animals were euthanized when the control (0.1% DMSO:PBS) treated mice reached the defined endpoint of 225 mm^2. Data representative of at least 5 independent experiments.\nAll animal procedures were carried out in accordance with the guidelines of the Canadian Council on Animal Care and the NIH guidelines on the care and use of laboratory animals. All protocols were reviewed and approved by the Animal Care Committee of the University of Calgary (Protocol approval number: AC21-0147). Six- to eight-week-old female or male CB17 severe combined immunodeficiency (SCID) mice (Charles River Laboratories, Saint-Constant, QC, Canada) were subcutaneously injected in the right flank with 3×10^6 YP-MEL or NT-2 cells suspended in 0.1 mL sterile PBS. After tumor injection, animals with detectable tumor growth of at least 50 mm^2 were randomized into groups. […] Animals and respective cages were monitored for food and bedding supplies daily; doses were injected every 2 days and tumor areas were measured with a Vernier caliper (prior to each treatment cycle). […]"}, "[1]": {"system": "NT-2 testicular cancer cells", "assay": "Flow cytometric (propidium iodide) cell cycle analysis of NT-2 cells", "assay_type": "cell-based", "settings": "first 24h", "description": "FIG. 9: NT-2, testicular cancer cells, were incubated with Compound of formula (I) isomers for 24h and subjected to Flow Cytometric analysis to determine the alterations in cancer cell cycle. […] Therefore, only the P1 isomer of Compound of formula (I) was investigated further to determine its in vitro and in vivo efficacy.\nThe method for Propidium Iodide (PI) based cell cycle analysis was performed as per the instructions given by the manufacturer (AB139418; Abcam). Briefly NT-2 cells treated with Compound of formula (I) versions were harvested in single cell suspensions with each experimental condition containing two million cells, fixed in 66% Ethanol overnight at 4° C. The ethanol was removed thoroughly by centrifugation, followed by rehydration of cells in PBS with a repeat of centrifugation. Cells were stained in PI (1%) and RNase solution (1%) in PBS for 30 minutes at 37° C. in the dark. The cells were analyzed immediately on the Flow Cytometer."}, "Lin28A protein": {"target": "T1, Lin28A protein (Homo sapiens, UniProt Q9H9Z2)", "T1 construct": "in a panel of endogenously LIN28 expressing cancer cell models; endogenous in cells; host or cells: T47D, YP-MEL, BT-12, BT-37, NT-2 (NTERA)", "T1 sequence (Q9H9Z2 1-209)": "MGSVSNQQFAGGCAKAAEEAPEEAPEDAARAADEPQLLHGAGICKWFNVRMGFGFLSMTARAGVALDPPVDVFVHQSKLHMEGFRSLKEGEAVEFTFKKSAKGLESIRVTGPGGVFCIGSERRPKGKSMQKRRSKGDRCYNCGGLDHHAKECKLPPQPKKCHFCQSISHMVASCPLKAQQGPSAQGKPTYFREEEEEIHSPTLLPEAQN", "assay": "Western blotting of Lin28A protein in cancer cell models", "assay_type": "cell-based", "description": "(§1) FIG. 5: Compound of formula (I) mixture, containing the two isomers (P1+P2) causes significant reduction in Lin28A protein from 5 μM onwards, in a panel of endogenously LIN28 expressing cancer cell models. […] LIN28A and LIN28B expression profile in pediatric CNS cancer cell lines, 96-hr post-treatment with Compound of formula (I). SDS-PAGE on 10% polyacrylamide gel of total cell lysates from untreated cells harvested at 80-90% confluency. Samples loaded with volumes for 20 μg protein. LIN28A and LIN28B proteins were detected using the anti-LIN28A antibody (#8706; Cell Signaling Technology) and anti-LIN28B antibody (#11965; Cell Signalling Technology) at 1:2000 dilutions. T47D: adult breast cancer (LIN28A expressing); YPMEL: malignant melanoma derived from Neurocutaneous Melanosis (NCM) (Lin28A and Lin28B expressing); BT-12: pediatric atypical-teratoid rhabdoid tumor (AT/RT).\nFIG. 7A-C: To determine the differences in the biological activity of the two isomers (P1+P2) of Compound of formula (I), we tested the effects of purified and separated P1 and P2 isomers on the protein expression of Lin28A and Lin28B. (A) YP-MEL (NCM). (B) BT-37 (AT/RT). (C) NT-2 (NTERA) (Testicular cancer).\nThe proteins were extracted from the same samples as the RNA using the RIPA lysis buffer. The protein extracts (20 μg) were run on 10% SDS-PAGE and transferred on a nitrocellulose blotting membrane 0.22 μm (GE Healthcare) using the Trans-Blot® SD semi-dry transfer devise (Biorad). The proteins were detected using the anti-Lin28A antibody (#8706; Cell Signaling Technology), anti-Lin28B antibody (#11965, Cell Signaling Technology) the anti-beta-actin antibody at respectively 1:2000, 1:2000 and 1:5000 dilutions."}, "LIN28B protein": {"target": "T2, LIN28B protein (Homo sapiens, UniProt Q6ZN17)", "T2 construct": "in a panel of endogenously LIN28 expressing cancer cell models; endogenous in cells; host or cells: YP-MEL, BT-12, BT-37, NT-2 (NTERA)", "T2 sequence (Q6ZN17 1-250)": "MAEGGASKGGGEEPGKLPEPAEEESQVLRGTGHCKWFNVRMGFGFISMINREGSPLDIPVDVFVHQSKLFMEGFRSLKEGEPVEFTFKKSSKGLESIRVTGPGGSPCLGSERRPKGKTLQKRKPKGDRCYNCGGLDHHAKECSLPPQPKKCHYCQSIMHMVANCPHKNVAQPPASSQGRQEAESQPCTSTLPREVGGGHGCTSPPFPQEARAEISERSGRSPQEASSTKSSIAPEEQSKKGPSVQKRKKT", "assay": "Western blotting of Lin28B protein in cancer cell models", "assay_type": "cell-based", "settings": "YP-MEL, BT-37, NT-2 cells; at the tested dosages", "description": "as §1, with “(AT/RT). […]” for “(AT/RT).”\nThe proteins were extracted from the same samples as the RNA using the RIPA lysis buffer. […] The proteins were detected using the anti-Lin28A antibody (#8706; Cell Signaling Technology), anti-Lin28B antibody (#11965, Cell Signaling Technology) the anti-beta-actin antibody at respectively 1:2000, 1:2000 and 1:5000 dilutions."}}}
{"smiles": "CC[C@H](C)[C@H](NC(=O)[C@H](Cc1ncc[nH]1)NC(=O)c1cccc(C(N)=O)c1)C(=O)Nc1ccc(O)c(-c2nc3ccccc3s2)c1", "note": "[Compound P1]", "values": [{"measurement": "growth of NCM tumors", "setting": "YP-MEL NCM tumor", "result": "significantly reduced the growth"}, {"measurement": "share of total cell count that had undergone cell death", "setting": "[1]", "result": "approximately 10%"}, {"measurement": "selectivity relative to the crude mixture containing P1+P2", "setting": "Lin28A protein; Lin28A inhibition, FIG. 7 versus FIG. 5", "result": 5, "unit": "times"}, {"measurement": "concentration from which Lin28A is selectively inhibited", "setting": "Lin28A protein; YP-MEL, BT-37, NT-2 cells", "result": "≥ 1", "unit": "µM"}, {"measurement": "Lin28B expression", "setting": "LIN28B protein", "result": "remained unaltered"}]}
